Test results published in patent US12258328B2, “6-membered heteroaryl-containing aminopyridine compounds as EGFR inhibitors” (YUHAN CORPORATION, priority 2021, dated 2025).
Where two headings read alike, the source gives them in different places.

Columns and labels:
EGFR L858R/T790M/C797S = EGFR L858R/T790M/C797S (Homo sapiens, UniProt P00533, C797S/L858R/T790M); assay: Biochemical EGFR kinase assay (Lance Ultra TR-FRET), triple mutant L858R/T790M/C797S
In short: (§1)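 Enzyme reactions lasted 1 hour at room temperature with test compounds between 0.003 and 10 μM, followed by 10 mM EDTA quench.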

EGFR L858R/C797S = EGFR L858R/C797S (Homo sapiens, UniProt P00533, C797S/L858R); assay: Biochemical EGFR kinase assay (Lance Ultra TR-FRET), double mutant L858R/C797S
In short: as §1

EGFR del19/T790M/C797S = EGFR del19/T790M/C797S (Homo sapiens, UniProt P00533, C797S/DEL746-750/T790M); assay: Biochemical EGFR kinase assay (Lance Ultra TR-FRET), triple mutant del19/T790M/C797S
In short: as §1

EGFR del19/C797S = EGFR del19/C797S (Homo sapiens, UniProt P00533, C797S/DEL746-750); assay: Biochemical EGFR kinase assay (Lance Ultra TR-FRET), double mutant del19/C797S
In short: as §1

EGFR wildtype = EGFR wildtype (Homo sapiens, UniProt P00533); assay: Biochemical EGFR kinase assay (Lance Ultra TR-FRET), wildtype
In short: as §1

[1] = IC50 L858R/T790M/C797S (nM) 100 μM ATP, 100 μM ATP
[2] = IC50 L858R/C797S (nM) 100 μM ATP, 100 μM ATP
[3] = IC50 del19/T790M/C797S (nM) 100 μM ATP, 100 μM ATP
[4] = IC50 del19/C797S (nM) 100 μM ATP, 100 μM ATP
[5] = IC50 WT (nM) 100 μM ATP, 100 μM ATP
[6] = Km ATP, read-out: IC50 L858R/T790M/C797S (nM) Km ATP
[7] = Km ATP, read-out: IC50 L858R/C797S (nM) Km ATP
[8] = Km ATP, read-out: IC50 del19/T790M/C797S (nM) Km ATP
[9] = Km ATP, read-out: IC50 WT (nM) Km ATP
[10] = Km ATP, read-out: IC50 del19/C797S (nM) Km ATP

EGFR L858R/C797S, sequence (P00533 25-1210 C797S/L858R): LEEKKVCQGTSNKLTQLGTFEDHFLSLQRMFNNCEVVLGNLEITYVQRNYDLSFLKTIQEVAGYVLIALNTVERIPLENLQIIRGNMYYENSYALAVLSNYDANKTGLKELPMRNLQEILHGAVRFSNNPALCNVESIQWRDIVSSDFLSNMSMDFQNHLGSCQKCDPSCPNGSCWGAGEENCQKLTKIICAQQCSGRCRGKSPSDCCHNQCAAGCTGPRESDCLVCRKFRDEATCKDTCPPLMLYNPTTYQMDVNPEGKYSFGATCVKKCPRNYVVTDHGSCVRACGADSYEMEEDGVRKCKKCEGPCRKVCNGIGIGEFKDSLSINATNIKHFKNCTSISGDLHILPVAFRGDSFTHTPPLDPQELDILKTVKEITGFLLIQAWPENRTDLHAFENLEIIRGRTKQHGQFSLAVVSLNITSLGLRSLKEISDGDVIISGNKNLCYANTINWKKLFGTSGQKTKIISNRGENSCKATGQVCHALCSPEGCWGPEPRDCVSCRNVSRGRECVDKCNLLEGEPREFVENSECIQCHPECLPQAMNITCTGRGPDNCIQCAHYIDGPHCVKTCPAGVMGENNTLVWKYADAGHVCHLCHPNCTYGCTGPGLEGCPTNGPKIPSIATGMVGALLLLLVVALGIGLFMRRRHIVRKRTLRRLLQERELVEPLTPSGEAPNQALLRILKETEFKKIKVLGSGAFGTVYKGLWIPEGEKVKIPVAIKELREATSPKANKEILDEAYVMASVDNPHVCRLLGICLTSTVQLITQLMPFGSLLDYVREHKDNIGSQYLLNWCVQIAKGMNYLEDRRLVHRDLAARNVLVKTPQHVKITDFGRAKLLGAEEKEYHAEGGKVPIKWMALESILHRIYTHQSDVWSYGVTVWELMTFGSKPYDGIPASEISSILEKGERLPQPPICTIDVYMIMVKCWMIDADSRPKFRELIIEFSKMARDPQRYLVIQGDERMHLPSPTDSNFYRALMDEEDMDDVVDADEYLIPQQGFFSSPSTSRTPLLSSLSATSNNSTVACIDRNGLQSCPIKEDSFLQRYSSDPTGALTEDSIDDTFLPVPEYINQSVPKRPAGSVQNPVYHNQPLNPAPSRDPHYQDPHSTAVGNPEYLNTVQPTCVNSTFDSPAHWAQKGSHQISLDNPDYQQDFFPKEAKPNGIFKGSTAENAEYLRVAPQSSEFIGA
EGFR L858R/T790M/C797S, sequence (P00533 25-1210 T790M/C797S/L858R): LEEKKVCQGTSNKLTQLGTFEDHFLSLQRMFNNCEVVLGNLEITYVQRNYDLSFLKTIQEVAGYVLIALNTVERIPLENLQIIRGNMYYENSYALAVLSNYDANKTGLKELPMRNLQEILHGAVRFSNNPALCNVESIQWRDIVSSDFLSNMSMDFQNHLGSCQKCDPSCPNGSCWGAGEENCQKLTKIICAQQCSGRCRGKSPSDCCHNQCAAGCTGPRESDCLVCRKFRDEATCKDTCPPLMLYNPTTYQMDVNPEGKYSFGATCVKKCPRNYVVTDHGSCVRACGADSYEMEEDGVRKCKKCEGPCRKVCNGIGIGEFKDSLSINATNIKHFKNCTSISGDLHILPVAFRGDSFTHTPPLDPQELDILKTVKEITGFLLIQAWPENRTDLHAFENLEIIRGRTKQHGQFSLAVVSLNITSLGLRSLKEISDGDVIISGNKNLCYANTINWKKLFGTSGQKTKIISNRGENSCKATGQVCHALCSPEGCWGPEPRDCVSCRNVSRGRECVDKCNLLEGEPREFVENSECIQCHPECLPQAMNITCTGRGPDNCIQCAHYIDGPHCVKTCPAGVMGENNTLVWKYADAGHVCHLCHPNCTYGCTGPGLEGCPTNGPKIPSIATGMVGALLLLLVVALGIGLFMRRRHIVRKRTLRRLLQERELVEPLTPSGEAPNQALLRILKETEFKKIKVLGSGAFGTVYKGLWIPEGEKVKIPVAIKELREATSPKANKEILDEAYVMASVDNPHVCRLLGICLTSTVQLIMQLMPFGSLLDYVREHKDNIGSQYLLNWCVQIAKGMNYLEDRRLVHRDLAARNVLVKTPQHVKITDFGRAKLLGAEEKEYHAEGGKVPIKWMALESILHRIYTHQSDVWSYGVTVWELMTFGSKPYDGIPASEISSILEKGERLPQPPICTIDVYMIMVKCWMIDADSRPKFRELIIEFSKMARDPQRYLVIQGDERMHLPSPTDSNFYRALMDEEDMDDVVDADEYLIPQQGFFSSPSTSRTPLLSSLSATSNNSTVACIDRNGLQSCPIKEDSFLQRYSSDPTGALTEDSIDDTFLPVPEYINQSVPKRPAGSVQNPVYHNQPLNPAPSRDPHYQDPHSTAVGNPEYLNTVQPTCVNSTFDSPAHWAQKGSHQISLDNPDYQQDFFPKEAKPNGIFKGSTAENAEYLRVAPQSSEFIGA
EGFR del19/C797S, sequence (P00533 with tags, fused parts or gaps DEL746-750/C797S): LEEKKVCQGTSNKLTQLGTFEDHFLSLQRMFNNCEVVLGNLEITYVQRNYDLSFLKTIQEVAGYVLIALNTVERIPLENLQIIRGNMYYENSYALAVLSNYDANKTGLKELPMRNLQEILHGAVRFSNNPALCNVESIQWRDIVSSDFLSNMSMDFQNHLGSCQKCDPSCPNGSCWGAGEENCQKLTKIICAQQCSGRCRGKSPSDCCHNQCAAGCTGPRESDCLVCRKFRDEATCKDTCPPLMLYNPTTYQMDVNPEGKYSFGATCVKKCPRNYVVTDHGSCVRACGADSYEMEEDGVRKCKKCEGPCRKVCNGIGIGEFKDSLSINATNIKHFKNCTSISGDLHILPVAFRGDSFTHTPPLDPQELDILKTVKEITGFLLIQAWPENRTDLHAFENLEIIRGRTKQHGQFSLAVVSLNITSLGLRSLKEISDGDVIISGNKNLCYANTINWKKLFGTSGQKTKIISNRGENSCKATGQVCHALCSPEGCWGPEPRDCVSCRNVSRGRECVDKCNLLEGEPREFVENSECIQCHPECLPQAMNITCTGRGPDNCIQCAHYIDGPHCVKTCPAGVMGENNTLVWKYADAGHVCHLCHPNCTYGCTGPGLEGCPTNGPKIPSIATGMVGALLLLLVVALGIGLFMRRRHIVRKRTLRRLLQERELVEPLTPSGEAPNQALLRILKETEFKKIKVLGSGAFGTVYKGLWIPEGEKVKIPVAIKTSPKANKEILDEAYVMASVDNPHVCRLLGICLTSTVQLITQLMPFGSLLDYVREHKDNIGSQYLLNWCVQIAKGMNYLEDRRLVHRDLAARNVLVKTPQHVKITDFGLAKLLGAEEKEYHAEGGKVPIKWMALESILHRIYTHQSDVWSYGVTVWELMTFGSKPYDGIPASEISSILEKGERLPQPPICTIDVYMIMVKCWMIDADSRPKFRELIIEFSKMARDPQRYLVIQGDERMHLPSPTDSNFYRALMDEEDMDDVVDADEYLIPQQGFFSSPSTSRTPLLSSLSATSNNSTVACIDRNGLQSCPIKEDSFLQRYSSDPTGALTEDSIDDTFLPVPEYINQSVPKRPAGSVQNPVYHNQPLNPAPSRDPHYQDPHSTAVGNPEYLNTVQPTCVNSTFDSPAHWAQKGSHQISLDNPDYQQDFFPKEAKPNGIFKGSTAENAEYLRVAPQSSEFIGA
EGFR del19/T790M/C797S, sequence (P00533 with tags, fused parts or gaps DEL746-750/T790M/C797S): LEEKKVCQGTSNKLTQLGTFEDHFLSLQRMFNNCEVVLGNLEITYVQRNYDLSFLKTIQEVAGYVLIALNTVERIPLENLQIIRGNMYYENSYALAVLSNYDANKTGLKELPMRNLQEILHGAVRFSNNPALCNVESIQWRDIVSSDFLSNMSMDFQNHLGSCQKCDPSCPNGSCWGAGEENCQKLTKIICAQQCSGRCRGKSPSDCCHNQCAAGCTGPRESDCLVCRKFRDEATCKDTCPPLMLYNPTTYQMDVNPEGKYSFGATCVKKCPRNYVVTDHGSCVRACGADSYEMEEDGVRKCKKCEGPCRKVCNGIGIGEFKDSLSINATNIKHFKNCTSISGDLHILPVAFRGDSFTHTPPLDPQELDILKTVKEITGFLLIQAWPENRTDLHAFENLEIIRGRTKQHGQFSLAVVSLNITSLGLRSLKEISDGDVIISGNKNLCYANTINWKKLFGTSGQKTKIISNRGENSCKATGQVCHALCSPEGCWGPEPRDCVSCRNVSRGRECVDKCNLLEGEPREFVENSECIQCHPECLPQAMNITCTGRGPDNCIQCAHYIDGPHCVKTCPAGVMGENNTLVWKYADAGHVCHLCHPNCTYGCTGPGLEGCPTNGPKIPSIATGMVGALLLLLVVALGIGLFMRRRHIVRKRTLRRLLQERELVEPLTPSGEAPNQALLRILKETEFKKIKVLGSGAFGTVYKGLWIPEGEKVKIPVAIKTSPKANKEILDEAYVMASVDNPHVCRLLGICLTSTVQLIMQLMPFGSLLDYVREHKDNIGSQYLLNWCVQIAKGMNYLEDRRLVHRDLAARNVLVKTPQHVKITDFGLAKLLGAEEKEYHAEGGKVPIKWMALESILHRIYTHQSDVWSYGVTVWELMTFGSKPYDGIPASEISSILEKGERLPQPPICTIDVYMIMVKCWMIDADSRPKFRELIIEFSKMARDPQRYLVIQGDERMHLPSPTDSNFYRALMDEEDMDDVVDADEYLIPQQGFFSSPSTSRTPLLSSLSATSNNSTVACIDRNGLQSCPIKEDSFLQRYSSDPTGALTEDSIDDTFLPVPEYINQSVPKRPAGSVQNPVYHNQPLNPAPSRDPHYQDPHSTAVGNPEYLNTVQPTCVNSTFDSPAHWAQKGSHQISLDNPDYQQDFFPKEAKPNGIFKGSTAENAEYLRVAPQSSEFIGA

Row | IC50 (EGFR L858R/T790M/C797S; [1]) | IC50 (EGFR L858R/C797S; [2]) | IC50 (EGFR del19/T790M/C797S; [3]) | IC50 (EGFR del19/C797S; [4]) | IC50 (EGFR wildtype; [5]) | IC50 (EGFR L858R/T790M/C797S; [6]) | IC50 (EGFR L858R/C797S; [7]) | IC50 (EGFR del19/T790M/C797S; [8]) | IC50 (EGFR wildtype; [9]) | IC50 (EGFR del19/C797S; [10]) | Structure (SMILES)
1 | 0.2 nM | 5.4 nM | 0.2 nM | 0.8 nM | > 10000 nM |  |  |  |  |  | C[C@]1(O)CC[C@@H](Nc2cc(Nc3ccnc(-c4cnn(S(=O)(=O)C5CC5)c4)n3)ncc2-c2ccc(C(F)F)cn2)CC1 [Example 63, (1s,4s)-4-((6′-((2-(1-(Cyclopropylsulfonyl)-1H-pyrazol-4-yl)pyrimidin-4-yl)amino)-5-(difluoromethyl)-[2,3′-bipyridin]-4′-yl)amino)-1-methylcyclohexan-1-ol]
2 | 0.3 nM | 0.9 nM | 0.1 nM | 0.2 nM | 1170 nM | 0.1 nM | 0.2 nM | 0.1 nM | 2.4 nM |  | CN(C)Cc1ccnc(-c2cnc(Nc3ccnc(-c4cnn(S(=O)(=O)C5CC5)c4)n3)cc2N[C@H]2CC[C@@](C)(O)CC2)c1 [Example 64, (1s,4s)-4-((6′-((2-(1-(Cyclopropylsulfonyl)-1H-pyrazol-4-yl)pyrimidin-4-yl)amino)-4-((dimethylamino)methyl)-[2,3′-bipyridin]-4′-yl)amino)-1-methylcyclohexan-1-ol]
3 | 0.3 nM | 0.9 nM | 0.1 nM | 0.2 nM | 1140 nM | 0.1 nM | 0.1 nM | 0.1 nM | 2.4 nM | 0.3 nM | CN(C)Cc1cnc(-c2cnc(Nc3ccnc(-c4cnn(S(=O)(=O)C5CC5)c4)n3)cc2N[C@H]2CC[C@@](C)(O)CC2)cn1 [Example 65, (1s,4s)-4-((2-((2-(1-(Cyclopropylsulfonyl)-1H-pyrazol-4-yl)pyrimidin-4-yl)amino)-5-(5-((dimethylamino)methyl)pyrazin-2-yl)pyridin-4-yl)amino)-1-methylcyclohexan-1-ol]
4 | 0.5 nM | 12.2 nM | 0.5 nM | 0.9 nM | > 10000 nM | 0.1 nM | 0.5 nM | 0.3 nM | 11.5 nM | 0.4 nM | C[C@]1(O)CC[C@@H](Nc2cc(Nc3ccnc(-c4cnn(S(=O)(=O)C5CC5)c4)n3)ncc2-c2ccc(N3CC(F)(F)C3)nn2)CC1 [Example 66, (1s,4s)-4-((2-((2-(1-(Cyclopropylsulfonyl)-1H-pyrazol-4-yl)pyrimidin-4-yl)amino)-5-(6-(3,3-difluoroazetidin-1-yl)pyridazin-3-yl)pyridin-4-yl)amino)-1-methylcyclohexan-1-ol]
5 | 0.3 nM | 4.5 nM | 0.3 nM | 0.5 nM | > 10000 nM | 0.1 nM | 0.8 nM | 0.3 nM | 3.7 nM | 0.5 nM | C[C@]1(O)CC[C@@H](Nc2cc(Nc3ccnc(-c4cnn(S(=O)(=O)C5CC5)c4)n3)ncc2-c2ccc(N3CC4(COC4)C3)nn2)CC1 [Example 67, (1s,4s)-4-((5-(6-(2-Oxa-6-azaspiro[3.3]heptan-6-yl)pyridazin-3-yl)-2-((2-(1-(cyclopropylsulfonyl)-1H-pyrazol-4-yl)pyrimidin-4-yl)amino)pyridin-4-yl)amino)-1-methylcyclohexan-1-ol]
6 | 0.8 nM | 124 nM |  | 4.9 nM | > 10000 nM | 0.8 nM | 1.1 nM | 0.9 nM | 23.2 nM | 2.8 nM | C[C@]1(O)CC[C@@H](Nc2cc(Nc3ccnc(-c4cnn(S(=O)(=O)C5CC5)c4)n3)ncc2-c2ccc(N3CCC(F)(F)CC3)nn2)CC1 [Example 68, (1s,4s)-4-((2-((2-(1-(Cyclopropylsulfonyl)-1H-pyrazol-4-yl)pyrimidin-4-yl)amino)-5-(6-(4,4-difluoropiperidin-1-yl)pyridazin-3-yl)pyridin-4-yl)amino)-1-methylcyclohexan-1-ol]
7 | 1.4 nM | 52.7 nM | 1.6 nM | 5.3 nM | 4780 nM | 0.8 nM | 1.4 nM | 1.9 nM | 14.5 nM | 2.4 nM | O=S(=O)(C1CC1)n1cc(-c2nccc(Nc3cc(N[C@H]4CC[C@@H](CO)CC4)c(-c4ccc(N5CCC(F)(F)CC5)nn4)cn3)n2)cn1 [Example 69, ((1s,4s)-4-((2-((2-(1-(Cyclopropylsulfonyl)-1H-pyrazol-4-yl)pyrimidin-4-yl)amino)-5-(6-(4,4-difluoropiperidin-1-yl)pyridazin-3-yl)pyridin-4-yl)amino)cyclohexyl)methanol]
8 | 4.9 nM | 81.1 nM | 3.9 nM | 13.1 nM | > 10000 nM |  |  |  |  |  | O=S(=O)(C1CC1)n1cc(-c2nccc(Nc3cc(N[C@H]4CC[C@@H](CO)CC4)c(-c4cnc(N5CCC(F)(F)CC5)cn4)cn3)n2)cn1 [Example 70, ((1s,4s)-4-((2-((2-(1-(Cyclopropylsulfonyl)-1H-pyrazol-4-yl)pyrimidin-4-yl)amino)-5-(5-(4,4-difluoropiperidin-1-yl)pyrazin-2-yl)pyridin-4-yl)amino)cyclohexyl)methanol]
9 | 4.1 nM | 355 nM | 4.5 nM | 44.2 nM | > 10000 nM |  |  |  |  |  | CC(C)(O)[C@H]1CC[C@@H](Nc2cc(Nc3ccnc(-c4cnn(S(=O)(=O)C5CC5)c4)n3)ncc2-c2ccc(N3CCC(F)(F)CC3)nn2)CC1 [Example 71, 2-((1s,4s)-4-((2-((2-(1-(Cyclopropylsulfonyl)-1H-pyrazol-4-yl)pyrimidin-4-yl)amino)-5-(6-(4,4-difluoropiperidin-1-yl)pyridazin-3-yl)pyridin-4-yl)amino)cyclohexyl)propan-2-ol]
10 | 12.2 nM | 2430 nM | 12.7 nM | 21.7 nM | > 10000 nM | 1.7 nM | 61.4 nM | 10.7 nM | 84.2 nM | 22.4 nM | CC(C)(O)[C@H]1CC[C@@H](Nc2cc(Nc3ccnc(-c4cnn(S(=O)(=O)C5CC5)c4)n3)ncc2-c2cnc(N3CCC(F)(F)CC3)cn2)CC1 [Example 72, 2-((1s,4s)-4-((2-((2-(1-(Cyclopropylsulfonyl)-1H-pyrazol-4-yl)pyrimidin-4-yl)amino)-5-(5-(4,4-difluoropiperidin-1-yl)pyrazin-2-yl)pyridin-4-yl)amino)cyclohexyl)propan-2-ol]
11 | 0.5 nM | 16.3 nM | 0.7 nM | 0.5 nM | 562 nM | 0.2 nM |  | 0.4 nM | 2.2 nM | 0.4 nM | CN(C)C[C@H]1CC[C@@H](Nc2cc(Nc3ccnc(-c4cnn(S(=O)(=O)C5CC5)c4)n3)ncc2-c2ccc(N3CCC(F)(F)CC3)nn2)CC1 [Example 73, N^2-(2-(1-(Cyclopropylsulfonyl)-1H-pyrazol-4-yl)pyrimidin-4-yl)-5-(6-(4,4-difluoropiperidin-1-yl)pyridazin-3-yl)-N^4-((1s,4s)-4-((dimethylamino)methyl)cyclohexyl)pyridine-2,4-diamine]
